Literature values as cited in patent US20160106774A1, “LIQUID PHARMACEUTICAL COMPOSITION CONTAINING PIROXICAM AND HYALURONIC ACID FOR THE TREATMENT OF OSTEOARTHRITIS” (DONG-A ST CO., LTD, priority 2013, published 2016).

Tested on: carrageenan-induced animal podedema model
Settings: coadministration of NSAID with sodium hyaluronate; piroxicam 4 mg/kg and sodium hyaluronate 4 mg/kg; foot pad

Compound | anti-inflammatory effect of coadministration with sodium hyaluronate
O=C(O)Cc1ccccc1Nc1c(Cl)cccc1Cl [diclofenac] | additive or synergistic effects
COc1ccc2c(c1)c(CC(=O)O)c(C)n2C(=O)c1ccc(Cl)cc1 [indomethacin] | additive or synergistic effects
CC(C)Cc1ccc(C(C)C(=O)O)cc1 (stereo not shown) [ibuprofen] | additive or synergistic effects
CN1C(C(=O)Nc2ccccn2)=C(O)c2ccccc2S1(=O)=O [piroxicam] | weak
